Results reported in publication PMC10721786, “Development of a potent benzonitrile-based inhibitor of glutaminyl-peptide cyclotransferase-like protein (QPCTL) with antitumor efficacy” (Signal Transduction and Targeted Therapy, 2023).

Key:
QPCTL = biological target: T1, QPCTL (Homo sapiens, UniProt Q9NXS2); experiment: Enzyme activity assay (fluorescent, H-Gln-AMC / PGPEP I coupled) against QPCTL; format: biochemical; details: mean ± SD of three independent experiments
T1 construct: made in house; host or cells: Escherichia coli BL21 (DE3)
T1 sequence (Q9NXS2 whole entry): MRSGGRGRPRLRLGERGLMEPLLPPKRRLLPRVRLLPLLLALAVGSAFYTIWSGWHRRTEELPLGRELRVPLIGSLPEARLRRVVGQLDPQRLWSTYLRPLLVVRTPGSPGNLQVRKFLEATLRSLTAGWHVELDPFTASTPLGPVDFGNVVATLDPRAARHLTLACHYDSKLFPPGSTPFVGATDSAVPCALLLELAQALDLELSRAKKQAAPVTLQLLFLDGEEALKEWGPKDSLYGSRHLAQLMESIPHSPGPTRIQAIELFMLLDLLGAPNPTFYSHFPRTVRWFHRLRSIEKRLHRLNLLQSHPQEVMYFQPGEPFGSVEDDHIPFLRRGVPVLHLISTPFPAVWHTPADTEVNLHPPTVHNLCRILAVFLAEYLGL
Protocol: The DNA with sequence coding for the human glutaminyl-peptide cyclotransferase-like protein (nucleotide entry: NP_060129) was synthesized and then inserted into the pGEX-4T-2 vector. The vector was transformed into Escherichia coli BL21 (DE3) competent cells (Tiangen Biotech, Cat. # CB105). The bacteria were grown in LB media containing ampicillin (100 μg/ mL) at 37 °C until the cell density reached an OD600 of 0.8- 0.9. The cultures were induced with 1 mM IPTG for 8- 10 h at 20 °C. The bacteria were collected and resuspended in 50 mL PBS, and 1% Triton X-100 (v/v), 1% β-mercaptoethanol (v/v), PMSF (final concentration 1 mM) were added into the mixed solution. The bacterial cells were then harvested by centrifugation (4,700 g for 30 min at 4 °C) followed by ultrasonic breaking. The resulted solution was clarified by centrifugation at 13,800 g for 30 min. GST-beads was suspended to the supernatant and was gently shook for 1 hour to bind the protein. The resulted protein solution was centrifuged at 1,500 g for 5 min and the supernatant was discarded. At least 10-fold the volume of PBS was added to the pellet to sufficiently suspend the beads in the solution. Then the solution was clarified by centrifugation at 1,500 g for 5 min and the supernatant was discarded. The above steps were repeated twice. 1 mL GST elution buffer was added to the pellet and the solution was shaken gently for 30 min following by centrifugation at 1,500 g for 5 min. The supernatant was collected and was eluted with GST elution buffer at least twice. The supernatant was loaded onto SDS-PAGE electrophoresis to detect protein purity. The protein was stored in 20% glycerol at -80 °C.
Enzyme activity was measured by conversion of glutamine-4-amino-7-methylcounarine (H-Gln-AMC) to pyroglutamyl-AMC, which is subsequently a specific substrate for PGPEP I, releasing free AMC which can be fluorescently detected. For typical inhibition assay, 12.5 μL QPCTL protein (7 ng/μL) or QPCT protein (7 ng/μL) (MedChemExpress, Cat. #HY-P76560) and 2.5 μL of tested compounds with different concentrations were pipetted into a 384-well plate on ice. The reaction system was reacted in a shaker at 37 °C, 100 rpm for 10 minutes. Next, 10 μL fluorescent substrate H-Gln-AMC (500 μM) was added and incubated in 100 rpm for 20 min at 37 °C. […] Once done, the plate was moved over to TECAN Infinite 200PRO plate-reader to monitor and record the maximum fluorescence at 380nm excitation/ 460nm emission. The fluorescent signal value obtained was analyzed by Graphpad Prism 8.0 to obtain the inhibitory rate and IC50 of the compound.

pGlu-CD47 [1] = experiment: Flow cytometry of pGlu-CD47 (hCD47-CC2C6 binding) in HEK293T cells; format: cell-based, human; details: for IC50: Homo sapiens, HEK-293T, treatment 48 h, read-out: IC50, dose-dependent inhibition of pGlu-CD47
Protocol: (§1) Binding to cell surface CD47 was assessed by staining cells with fluorochrome-labeled antibodies clone CC2C6 (BioLegend, Cat. # 323102) and B6H12 (Abcam, Cat. # ab134485) to human CD47 at a dilution of 1:100 in PBS containing 1% FBS (FACS buffer) for 30 min on ice, while protected from light. SIRPα binding to CD47 was assessed by incubating cells with PE labeled recombinant human SIRPα/ CD172α Protein, Fc tag (ACRO Biosystems, Cat. # SIA-HP252) or PE labeled mouse SIRPα Protein, His tag (ACRO Biosystems, Cat. # SIA-MP2H6) for 1 hour on ice, while protected from light.

pGlu-CD47 [2] = experiment: Flow cytometry of pGlu-CD47 (hCD47-CC2C6 binding) in Raji cells; format: cell-based, human; details: 100 nM, 48 h
Protocol: as §1

CD47/SIRPα = experiment: Cell surface binding of human or mouse SIRPα protein to tumor cells (Raji, B16F10), flow cytometry; format: cell-based
Protocol: as §1

CD47 = experiment: Overall cell surface CD47 (hCD47-B6H12 binding) in HEK293T and Raji cells; format: cell-based, human; details: 100 nM, 48 h
Protocol: as §1

pGlu-CD47 [3] = experiment: hCD47-CC2C6 binding to various cancer cells (H929, HCT116, Huh7, SKOV3, SU-DHL-8, T24, H1299, MCF-7); format: cell-based, human; details: 500 nM, 48 h
Protocol: as §1

IC50 (QPCTL) [nM] | Compound | also measured
> 1000 | Cn1cnnc1C1CCN(c2c(C#N)cccc2-c2ccccc2)CC1 [Compound 6] | 
135 ± 64.3 | Cn1cnnc1C1CCN(c2c(C#N)cccc2-c2ccoc2)CC1 [Compound 24] | 
573 ± 85.5 | Cn1cnnc1C1CCN(c2c(C#N)cccc2-c2ccc(=O)n(C)c2)CC1 [Compound 21] | 
> 1000 | N#Cc1cccc(-c2ccc(F)nc2)c1N1CCC(c2cnc[nH]2)CC1 [Compound 29] | 
53.5 ± 11.8 | Cn1cnnc1C1CCN(c2c(C#N)cccc2-c2cnccc2C(F)(F)F)CC1 [Compound 17] | 
51.8 ± 6.2 | CCCOc1ccc([C@H]2CNC(=O)N2c2ccc3[nH]cnc3c2)cc1 [PQ912, reference compound] | IC50 (pGlu-CD47 [1]): 988 ± 409 nM
> 1000 | Cn1cnnc1C1CCN(c2ccccc2C#N)CC1 [Compound 8] | 
124 ± 9.8 | Cn1cnnc1C1CCN(c2c(C#N)cccc2-c2cncc(C#N)c2)CC1 [Compound 15] | 
> 1000 | Cc1noc(C)c1-c1cccc(C#N)c1N1CCC(c2nncn2C)CC1 [Compound 25] | 
17.6 ± 6.2 | Cn1cnnc1C1CCN(c2c(C#N)cccc2-c2cc[nH]c(=O)c2)CC1 [Compound 22] | 
187 ± 20.8 | Cn1cnnc1C1CCN(c2c(C#N)cccc2-c2ccc(O)nc2)CC1 [Compound 20] | 
19.6 ± 12.5 | Cn1cnnc1C1CCN(c2c(C#N)cccc2-c2ccn(C)c(=O)c2)CC1 [Compound 23] | 
76.5 ± 21.3 | Cn1cnnc1C1CCN(c2c(C#N)cccc2-c2cncnc2)CC1 [Compound 9] | 
56.5 ± 11.3 | Cn1cnnc1C1CCN(c2c(C#N)cccc2-c2cccnc2)CC1 [Compound 5] | 
471 ± 244 | Cn1cnnc1C1CCN(c2c(C#N)cccc2-c2ccc(N)nc2)CC1 [Compound 12] | 
> 1000 | Cn1cnnc1C1CCN(c2c(C#N)cccc2-c2ccncc2)CC1 [Compound 7] | 
74.5 ± 13.4 | Cc1ccncc1-c1cccc(C#N)c1N1CCC(c2nncn2C)CC1 [Compound 18] | 
94.3 ± 13.9 | Cc1nnc(C2CCN(c3c(C#N)cccc3-c3ccc(F)nc3)CC2)n1C [Compound 26] | 
> 1000 | CC(C)n1cnnc1C1CCN(c2c(C#N)cccc2-c2ccc(F)nc2)CC1 [Compound 27] | 
> 1000 | COc1ccncc1-c1cccc(C#N)c1N1CCC(c2nncn2C)CC1 [Compound 16] | 
105 ± 22.3 | Cn1cnnc1C1CCN(c2c(C#N)cccc2-c2cnccc2Cl)CC1 [Compound 19] | 
417 ± 210 | Cn1cnnc1C1CCN(c2c(C#N)cccc2-c2ccc(C#N)nc2)CC1 [Compound 11] | 
 | Cn1cnnc1C1CCN(c2c(C#N)cccc2-c2ccc(F)nc2)CC1 [QP5020] | inhibitory effect on CD47 pyroglutamation compared to SEN177 and PQ912 (pGlu-CD47 [2]): superior inhibitory effects; inhibitory effect on CD47 pyroglutamation compared to SEN177 and PQ912 (pGlu-CD47 [1]; 100 nM, 48 h): superior inhibitory effects; IC50 (pGlu-CD47 [1]): 6.4 ± 0.7 nM; binding of human or mouse SIRPα protein to cell surface (CD47/SIRPα): significantly reduced; overall cell surface levels of CD47 (CD47): did not alter; CD47 pyroglutamation in various types of cancer cells (pGlu-CD47 [3]): significantly attenuated
> 1000 | Cn1cnnc1C1CCN(c2c(C#N)cccc2-c2ccc(C(F)(F)F)nc2)CC1 [Compound 10] | 
368 ± 82 | COc1ccc(-c2cccc(C#N)c2N2CCC(c3nncn3C)CC2)cn1 [Compound 13] | 
73.6 ± 11.5 | Cn1cnnc1C1CCN(c2c(C#N)cccc2-c2cncc(F)c2)CC1 [Compound 14] | 
